Source: publication PMC10765884, “MC180295 is a highly potent and selective CDK9 inhibitor with preclinical in vitro and in vivo efficacy in cancer” (Clinical Epigenetics, 2024)
Entries after “also recorded” stand apart in the source; their conditions may differ. Like-named read-outs stand apart in the source and are kept apart here.

Key:
[1] = Liver microsome stability assay; format: in vitro ADME, mouse; settings: pH 7.4; for remaining at 1 h, 1 µM: male, CD-1, pooled liver microsomes, Mouse liver microsomes, without NADPH, 60 min, read-out: Stability minus NADPH % Remaining @ 60 min; for half-life at 1 µM: pooled liver microsomes, Mouse (CD-1, male) liver microsomes
Experimental: (§1) Assays were conducted in 96-deep well polypropylene plates. In duplicate, test compounds (1 µM) were incubated in 0.5 mL of 100 mM potassium phosphate buffer (pH 7.4), with 0.5 mg/ml pooled liver microsomes (Life Technologies: CD-1 male mice # MSMCPL; SD male rat # RTMCPL; mixed gender human # HMMCPL. BD Genetest male beagle dog; # 452,601; male marmoset # 452,340), 2 mM tetra sodium NADPH, and 3 mM MgCl2, for 60 min in a Labnet® Vortemp incubator at 37 °C, with gentle shaking. At five time points, 75 µL of reaction mixtures were transferred on ice to a 96-shallow well stop plate containing 225 µL acetonitrile with 0.1 µM propafenone. […] Standard curves for test compounds were generated using 5 concentrations (in duplicate) that were processed as above but with no incubation time. Stop plates were centrifuged at 2000xg for 10 min in a Sorvall ST 16 centrifuge, and 170 µL of the supernatants transferred to a Waters® Aquity UPLC (Ultra Performance Liquid Chromatography) 700 µL 96-well sample plate with cap mat. A Waters® Aquity UPLC BEH C18 1.7 µM, 2.1 × 50 mm column, at 40 °C, was used to fractionate 5 µL samples, using a 3 min linear 5 to 95% acetonitrile gradient in 0.1% formic acid with a 0.75 mL/min flow rate. In tandem with UPLC, compound concentrations were analyzed using a Waters® TQ MS mass spectrometer in electrospray-positive mode (source temperature 150 °C; desolvation temperature 450 °C; desolvation flow rate of 900 L/hr). Cone voltages, collision energies, and quantitation were optimized and determined using Waters® QuanOptimize software, with propafenone as an internal standard. MC180379:CV 34; CE 34; mrm 359.15 > 114.91; MC180390 CV 34; CE 28; mrm 359.15 > 114.92. GraphPad® Prism v 5.04 was used for nonlinear fitting of time course data to generate t1/2 and CLint (intrinsic clearance) values.

[2] = Liver microsome stability assay; format: in vitro ADME, dog; settings: pooled liver microsomes, pH 7.4; for remaining at 1 h, 1 µM: male, beagle, Dog liver microsomes, without NADPH, 60 min, read-out: Stability minus NADPH % Remaining @ 60 min; for half-life at 1 µM: Dog (beagle, male) liver microsomes
Experimental: as §1, with “BD Genetest male beagle dog; # 452,601; male marmoset # 452,340), 2 mM tetra sodium NADPH, and 3 mM MgCl2, for 60 min in a Labnet® Vortemp incubator at 37 °C, with gentle shaking.” left out

[3] = Rat hepatocyte stability assay; format: in vitro ADME; set-up: dose or concentration left out as unconfirmed; settings: cryopreserved primary hepatocytes; Rat (Sprague-Dawley) hepatocytes, male
Experimental: CLint (μL/min/10^6 cells) estimates were determined using a modified method of […] et al.. Cryopreserved rat (Sprague-Dawley) primary hepatocytes (4 male donors) (Life Tech product RTCS10) were rapidly thawed, diluted with Hank's balanced salt solution at 37 °C and centrifuged for 5 min at 100 × g. Resuspended cells were stained with 0.016% trypan blue and counted. Cell viability was > 80%. 0.25 mL of a 1 × 10^6 viable cells/ml cell suspension was added to 16-mm diameter wells of an uncoated polystyrene plate. The prewarmed plate was placed in a 37 °C incubator with 5% CO2 atmosphere, with 100 oscillations/min shaking. After 5 min, 0.25 mL of 2 μM test compound, in prewarmed HBSS, was added per well and mixed to start the reactions, with duplicate reactions per compound. Verapamil was used as a positive control, and cell-free reactions served as negative controls. At each time point (0, 5, 15, 30, 60, 90, and 120 min), 50 μL aliquots were transferred to a 96-well stop plate containing 200 μL/well acetonitrile: water (85:15), with 0.1% formic acid and 0.1 μM propafenone. The plate was centrifuged for 10 min at 2300 × g. 150 μL of the supernatant was transferred to a mass spectrometry sample plate. Samples were analyzed by UPLC/MS, as described in the microsome stability protocol. Results are expressed as t1/2 (min) and in vitro CLint (μL/min/10^6 cells).

MV4-11-luc cells = experiment: MV4-11-luc AML model in NSG mice; settings: MV4-11-luc in NSG mice, 20 mg/kg i.p. q.o.d.; for survival: 20 mg/kg
Experimental: E NSG mice were inoculated (i.p.) with 5 × 10^5 MV4-11-luc cells. Four days later, when substantial tumor burden was evident by bioluminescence imaging, MC180379, MC180380, or vehicle were administered (i.p.) q.o.d at 20 mg/kg. Luciferase expression was quantified and calculated. F Mouse survival in days. […] Significances were calculated using log-rank (Mantel-Cox) or Student’s t tests.
0.5 mg/kg DAC was administered (i.p.) daily. […] B Mouse survival in days. 20 mg/kg MC180295 was administered (i.p.) q.o.d. 0.5 mg/kg DAC was administered (i.p.) daily. C NSG mice were inoculated (i.p.) with 5 × 10^5 MV4-11-luc cells. Four days later, when substantial tumor burden was evident by bioluminescence imaging, MC180295 (20 mg/kg) or vehicle were administered (i.p.) every other day. 0.5 mg/kg DAC was administered (i.p.) daily. Luciferase expression was quantified and calculated. […] 0.5 mg/kg DAC was administered (i.p.) daily. Mouse survival shown in days. Significances were calculated using log-rank (Mantel-Cox) or Student's t tests. Data are shown as means ± SEMs. ***p < 0.001
Both female and male NOD.Cg-Prkdcscid Il2rgtm1Wjl/SzJ (NSG) mice were used for the experiments. Age- and gender-matched mice were randomly assigned to each group. 8–10-week-old NSG mice were tail vein-injected with 5 × 10^5 MV4-11-luc cells. […] Natural death or accumulation of ascites fluid were used as endpoints.

CDK9 = target: T1, CDK9 (Homo sapiens, UniProt P50750); experiment: CDK9 inhibitory activity of MC180295 and its enantiomers; format: biochemical; settings: Fig. S3E
T1 construct: purchased Reaction Biology Corp
Experimental: CDK enzymatic assays were performed by Reaction Biology Corp. (Malvern, PA), using 10 µM ATP for determining MC180295 IC50 values for each CDK family member for which assays were available. Kinase enzymatic assays were also performed by Nanosyn (Santa Clara, CA), using microfluidic technology and MC180295 IC50 curves against 10 CDKs. Selectivity against CDK9 was confirmed for the enantiomers at Reaction Biology Corp. (Malvern, PA).

[4] = Liver microsome stability assay; format: in vitro ADME, human; settings: both sexes, pooled liver microsomes, pH 7.4; for half-life at 1 µM: Human (mixed gender) liver microsomes; for remaining at 1 h, 1 µM: Human liver microsomes, without NADPH, 60 min, read-out: Stability minus NADPH % Remaining @ 60 min
Experimental: as §1, with “BD Genetest male beagle dog; # 452,601; male marmoset # 452,340), 2 mM tetra sodium NADPH, and 3 mM MgCl2, for 60 min in a Labnet® Vortemp incubator at 37 °C, with gentle shaking.” left out

[5] = Liver microsome stability assay; format: in vitro ADME; settings: pooled liver microsomes, pH 7.4, Cynomologous Monkey liver microsomes; for half-life at 1 µM: cynomolgus monkey; for remaining at 1 h, 1 µM: without NADPH, 60 min, read-out: Stability minus NADPH % Remaining @ 60 min

T1 sequence (P50750 whole entry): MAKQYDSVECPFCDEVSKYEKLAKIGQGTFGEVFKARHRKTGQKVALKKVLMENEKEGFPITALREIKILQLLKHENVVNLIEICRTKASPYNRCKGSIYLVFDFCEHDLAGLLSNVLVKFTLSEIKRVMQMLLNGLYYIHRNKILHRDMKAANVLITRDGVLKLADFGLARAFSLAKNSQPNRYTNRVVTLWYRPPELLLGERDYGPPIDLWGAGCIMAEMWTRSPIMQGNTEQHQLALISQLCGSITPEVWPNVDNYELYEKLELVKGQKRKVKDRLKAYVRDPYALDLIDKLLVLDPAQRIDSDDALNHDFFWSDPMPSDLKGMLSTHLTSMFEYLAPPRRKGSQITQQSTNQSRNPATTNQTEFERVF
T1 sequence (O60563 whole entry partner): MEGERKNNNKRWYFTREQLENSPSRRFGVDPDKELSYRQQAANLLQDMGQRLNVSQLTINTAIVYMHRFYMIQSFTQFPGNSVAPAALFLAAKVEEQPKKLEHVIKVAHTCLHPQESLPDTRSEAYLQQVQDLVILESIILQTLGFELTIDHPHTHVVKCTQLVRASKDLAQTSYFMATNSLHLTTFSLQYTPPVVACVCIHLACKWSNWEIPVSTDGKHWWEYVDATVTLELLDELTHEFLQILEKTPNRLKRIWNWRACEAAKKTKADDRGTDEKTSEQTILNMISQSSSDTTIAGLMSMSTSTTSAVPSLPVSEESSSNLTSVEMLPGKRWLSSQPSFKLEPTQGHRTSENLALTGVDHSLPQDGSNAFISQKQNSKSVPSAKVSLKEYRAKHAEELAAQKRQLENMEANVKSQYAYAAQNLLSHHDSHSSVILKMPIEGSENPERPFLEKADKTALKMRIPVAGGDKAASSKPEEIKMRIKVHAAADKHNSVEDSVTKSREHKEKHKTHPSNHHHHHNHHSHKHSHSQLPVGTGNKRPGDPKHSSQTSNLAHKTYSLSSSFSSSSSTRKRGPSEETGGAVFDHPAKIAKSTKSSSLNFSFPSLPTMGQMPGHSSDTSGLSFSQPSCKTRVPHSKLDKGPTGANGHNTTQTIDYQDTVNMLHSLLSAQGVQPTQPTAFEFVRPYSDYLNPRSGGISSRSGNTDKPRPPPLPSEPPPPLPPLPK

SMILES	remaining at 1 h, 1 µM [1]	half-life at 1 µM [1]	remaining at 1 h, 1 µM [2]	half-life at 1 µM [2]	half-life [3]	tumor burden, as measured by luciferase intensities (MV4-11-luc cells)	survival (MV4-11-luc cells)	IC50 (CDK9)	half-life at 1 µM [4]	remaining at 1 h, 1 µM [4]	half-life at 1 µM [5]	remaining at 1 h, 1 µM [5]
Nc1nc(N[C@H]2C[C@@H]3CC[C@H]2C3)sc1C(=O)c1ccccc1[N+](=O)[O-] [MC180380]	88%	7.1 min	88%	52.5 min	11.7 min	lower	significantly extended survival; also recorded: better survival	9 nM	21.1 min	88%	1.5 min	51%
Nc1nc(N[C@@H]2C[C@H]3CC[C@@H]2C3)sc1C(=O)c1ccccc1[N+](=O)[O-] [MC180379]	86%	3.2 min	88%	36.2 min	4.1 min	–	–	11 nM	12.2 min	86%	0.8 min	73%
Nc1nc(N[C@H]2C[C@@H]3CC[C@H]2C3)sc1C(=O)c1ccccc1[N+](=O)[O-] (relative stereo) [MC180295]	–	–	–	–	–	–	significantly extended survival	11 nM	–	–	–	–
